Structures can show the parent of a compound that is named as a salt. Where two headings read alike, the source gives them in different places.
Target: T1, human LPA1 (Homo sapiens, UniProt Q92633)
T1 construct: expressed in transfected cells; host or cells: Chinese hamster ovary (CHO) cells
Assay: LPA1 functional antagonist assay (LPA-induced calcium flux in CHO cells overexpressing human LPA1)
Type: cell-based
Conditions: read-out: hLPA1 IC50
Procedure: The effectiveness of compounds of the present invention as LPA1 inhibitors can be determined in an LPA1 functional antagonist assay as follows:
Chinese hamster ovary cells overexpressing human LPA1 were plated overnight (15,000 cells/well) in poly-D-lysine coated 384-well microplates (Greiner bio-one, Cat #781946) in DMEM/F12 medium (Gibco, Cat #11039). Following overnight culture, cells were loaded with calcium indicator dye (AAT Bioquest Inc, Cat #34601) for 30 minutes at 37° C. The cells were then equilibrated to room temperature for 30 minutes before the assay. Test compounds solubilized in DMSO were transferred to 384 well non-binding surface plates (Corning, Cat #3575) using the Labcyte Echo acoustic dispense and diluted with assay buffer [IX HBSS with calcium/magnesium (Gibco Cat #14025-092), 20 mM HEPES (Gibco Cat #15630-080) and 0.1% fatty acid free BSA (Sigma Cat #A9205)] to a final concentration of 0.5% DMSO. Diluted compounds were added to the cells by FDSS6000 (Hamamatsu) at final concentrations ranging from 0.08 nM to 5 μM. and were then incubated for 20 min at room temperature at which time LPA (Avanti Polar Lipids Cat #857130C) was added at final concentrations of 10 nM to stimulate the cells. The compound IC50 value was defined as the concentration of test compound which inhibited 50% of the calcium flux induced by LPA alone. IC50 values were determined by fitting data to a 4-parameter logistic equation (GraphPad Prism, San Diego Calif.).

[1] = inhibition of calcium flux induced by 10 nM LPA, CHO cells overexpressing human LPA1

T1 sequence (Q92633 whole entry): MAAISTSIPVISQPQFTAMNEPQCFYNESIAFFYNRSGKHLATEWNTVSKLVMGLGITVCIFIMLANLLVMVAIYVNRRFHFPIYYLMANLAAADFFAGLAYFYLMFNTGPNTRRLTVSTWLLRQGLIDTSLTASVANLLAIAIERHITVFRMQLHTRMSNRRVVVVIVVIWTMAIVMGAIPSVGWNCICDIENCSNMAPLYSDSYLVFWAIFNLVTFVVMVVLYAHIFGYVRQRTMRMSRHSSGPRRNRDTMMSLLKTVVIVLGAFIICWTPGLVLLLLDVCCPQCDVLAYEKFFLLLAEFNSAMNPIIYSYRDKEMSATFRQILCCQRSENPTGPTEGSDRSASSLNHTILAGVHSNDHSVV

IC50 [1] [nM]	IC50 [nM]	Structure (SMILES)
97		CCCc1nnc(OCc2c(-c3ccc(O[C@H]4CCC[C@H](C(=O)O)C4)c(C)n3)nnn2C)s1 [Example 132]
76		CCCCc1noc(NCc2c(-c3ccc(O[C@H]4CCC[C@H](C(=O)O)C4)c(C)n3)nnn2C)n1 [Example 43, (1S,3S)-3-((6-(5-(((3-Butyl-1,2,4-oxadiazol-5-yl)amino)methyl)-1-methyl-1H-1,2,3-triazol-4-yl)-2-methylpyridin-3-yl)oxy)cyclohexane-1-carboxylic acid, bis TFA salt]
1410		Cc1nc(-c2nnn(C)c2CNc2nnc(C(C)C)o2)ccc1O[C@H]1CCC[C@H](C(=O)O)C1 [Example 42, (1S,3S)-3-((6-(5-(((5-Isopropyl-1,3,4-oxadiazol-2-yl)amino)methyl)-1-methyl-1H-1,2,3-triazol-4-yl)-2-methylpyridin-3-yl)oxy)cyclohexane-1-carboxylic acid, 2 TFA salt]
45		CCOCc1nc(NCc2c(-c3ccc(O[C@H]4CCC[C@H](C(=O)O)C4)c(C)n3)nnn2C)no1 [Example 147]
23		Cc1nc(-c2nnn(C)c2CNc2noc(-c3ccccc3)n2)ccc1O[C@H]1CCC[C@H](C(=O)O)C1 [Example 65]
18		CCC(C)Cc1nc(NCc2c(-c3ccc(O[C@H]4CCC[C@H](C(=O)O)C4)c(C)n3)nnn2C)no1 (some centres unmarked) [Example 170]
33		Cc1nc(-c2nnn(C)c2Nc2noc(CC3CC3)n2)ccc1O[C@H]1CCC[C@H](C(=O)O)C1 [Example 277, (1S,3S)-3-{[6-(5-{[5-(Cyclo-propylmethyl)-1,2,4-oxadiazol-3-yl]amino}-1-methyl-1H-1,2,3-triazol-4-yl)-2-methylpyridin-3-yl]oxy}cyclohexane-1-carboxylic acid, bis TFA salt]
595		Cc1nc(-c2nnn(C)c2CNc2nnc(C(F)(F)F)o2)ccc1O[C@H]1CCC[C@H](C(=O)O)C1 [Example 47]
191		Cc1nc(-c2nnn(C)c2CNc2nnc(CC(C)C)o2)ccc1O[C@H]1CCC[C@H](C(=O)O)C1 [Example 54]
8		Cc1nc(-c2nnn(C)c2Cc2noc(CCC3CCC3)n2)ccc1O[C@H]1CCC[C@H](C(=O)O)C1 [Example 232, (1S,3S)-3-((6-(5-((5-(2-cyclobutylethyl)-1,2,4-oxadiazol-3-yl)methyl)-1-methyl-1H-1,2,3-triazol-4-yl)-2-methylpyridin-3-yl)oxy)cyclohexane-1-carboxylic acid]
32		Cc1nc(-c2nnn(C)c2CNc2noc(CCC(C)F)n2)ccc1O[C@H]1CCC[C@H](C(=O)O)C1 (some centres unmarked) [Example 201]
37.3		CCC(C)Cc1nc(NCc2c(-c3ccc(O[C@H]4CCC[C@H](C(=O)O)C4)cn3)nnn2C)no1 (mixture of isomers) [Example 290, (1S,3S)-3-((6-(1-methyl-5-(((5-(2-methylbutyl)-1,2,4-oxadiazol-3-yl)amino)methyl)-1H-1,2,3-triazol-4-yl)pyridin-3-yl)oxy)cyclohexane-1-carboxylic acid, racemate]
55		Cc1nc(-c2nnn(C)c2CNc2ncc(C(C)C)s2)ccc1O[C@H]1CCC[C@H](C(=O)O)C1 [Example 15]
160		CCCO[C@@H](C)c1nc(NCc2c(-c3ccc(O[C@H]4CCC[C@H](C(=O)O)C4)c(C)n3)nnn2C)no1 [Example 220]
105		Cc1nc(-c2nnn(C)c2CNc2nc(CC3CC3)no2)ccc1O[C@H]1CCC[C@H](C(=O)O)C1 [Example 64]
124		CCCCc1nc(NCc2c(-c3ccc(O[C@H]4CCC[C@H](C(=O)O)C4)cn3)nnn2C)no1 [Example 287, (1S,3S)-3-((6-(5-(((5-butyl-1,2,4-oxadiazol-3-yl)amino)methyl)-1-methyl-1H-1,2,3-triazol-4-yl)pyridin-3-yl)oxy)cyclohexane-1-carboxylic acid]
25.4		Cc1nc(-c2nnn(C)c2CNc2noc(C3CCCC3)n2)ccc1O[C@H]1CCC[C@H](C(=O)O)C1 [Example 176]

Continued, compound first:

Structure (SMILES)	IC50 [1] [nM]	IC50 [nM]
CCc1nc(-c2nnn(C)c2Cn2nnnc2CC2CC2)ccc1O[C@H]1CCC[C@H](C(=O)O)C1 [Example 306, (1S,3S)-3-{[6-(5-{[5-(cyclopropyl-methyl)-1H-1,2,3,4-tetrazol-1-yl]methyl}-1-methyl-1H-1,2,3-triazol-4-yl)-2-ethylpyridin-3-yl]oxy}cyclohexane-1-carboxylic acid]	205	
Cc1nc(-c2nnn(C)c2Cn2nnc(OCC3CC4CCC3C4)n2)ccc1O[C@H]1CCC[C@H](C(=O)O)C1 (stereo partly drawn) [Example 405, (1S,3S)-3-{[6-(5-{[5-({bicyclo[2.2.1]heptan-2-yl}methoxy)-2H-1,2,3,4-tetrazol-2-yl]methyl}-1-methyl-1H-1,2,3-triazol-4-yl)-2-methylpyridin-3-yl]oxy}cyclohexane-1-carboxylic acid]		47
Cc1nc(-c2nnn(C)c2CNc2nnn(-c3ccccc3)n2)ccc1O[C@H]1CCC[C@H](C(=O)O)C1 [Example 389, (1S,3S)-3-((2-methyl-6-(1-methyl-5-(((2-phenyl-2H-tetrazol-5-yl)amino)methyl)-1H-1,2,3-triazol-4-yl)pyridin-3-yl)oxy)cyclohexane-1-carboxylic acid]		84
Cc1nc(-c2nnn(C)c2Cn2sc(C3CC3)nc2=N)ccc1O[C@H]1CCC[C@H](C(=O)O)C1 [Example 274, (1 S,3 S)-3-((6-(5-((5-cyclopropyl-3-imino-1,2,4-thiadiazol-2(3H)-yl)methyl)-1-methyl-1H-1,2,3-triazol-4-yl)-2-methylpyridin-3-yl)oxy)cyclohexane-1-carboxylic acid]	1000	
Cc1nc(-c2nnn(C)c2Cn2nnc(OC(C)C)n2)ccc1O[C@H]1CCC[C@H](C(=O)O)C1 [Example 346, (1S,3S)-3-{[2-methyl-6-(1-methyl-5-{[5-(propan-2-yloxy)-2H-1,2,3,4-tetrazol-2-yl]methyl}-1H-1,2,3-triazol-4-yl)pyridin-3-yl]oxy}cyclohexane-1-carboxylic acid]	49	
Cc1nc(-c2nnn(C)c2CNc2ncn(-c3ccccc3)n2)ccc1O[C@H]1CCC[C@H](C(=O)O)C1 [Example 38]	34	
Cc1nc(-c2nnn(C)c2Cn2cnc(CC3CC3)n2)ccc1O[C@H]1CCC[C@H](C(=O)O)C1 [Example 210]	191	
Cc1nc(-c2nnn(C)c2Cn2nc(C3CCC3)oc2=N)ccc1O[C@H]1CCC[C@H](C(=O)O)C1 [Example 46]	137	
Cc1nc(-c2nnn(C)c2Cn2cc(CC(C)C)nn2)ccc1O[C@H]1CCC[C@H](C(=O)O)C1 [Example 262, (1S,3S)-3-((6-(5-((4-isobutyl-1H-1,2,3-triazol-1-yl)methyl)-1-methyl-1H-1,2,3-triazol-4-yl)-2-methylpyridin-3-yl)oxy)cyclohexane-1-carboxylic acid]	86	
Cc1nc(-c2nnn(C)c2Cc2noc(-c3ccccc3)n2)ccc1O[C@H]1CCC[C@H](C(=O)O)C1 [Example 238, (1S,3S)-3-((2-methyl-6-(1-methyl-5-((5-phenyl-1,2,4-oxadiazol-3-yl)methyl)-1H-1,2,3-triazol-4-yl)pyridin-3-yl)oxy)cyclohexane-1-carboxylic acid]	161	
Cc1nc(-c2nnn(C)c2Cc2nnn(CC(C)C)n2)ccc1O[C@H]1CCC[C@H](C(=O)O)C1 [Example 373, (1S,3S)-3-((6-(5-((2-isobutyl-2H-tetrazol-5-yl)methyl)-1-methyl-1H-1,2,3-triazol-4-yl)-2-methylpyridin-3-yl)oxy)cyclohexane-1-carboxylic acid]		136
Cc1nc(-c2nnn(C)c2Cc2nnn(Cc3ccccc3)n2)ccc1O[C@H]1CCC[C@H](C(=O)O)C1 [Example 402, (1S,3S)-3-[(6-{5-[(2-benzyl-2H-1,2,3,4-tetrazol-5-yl)methyl]-1-methyl-1H-1,2,3-triazol-4-yl}-2-methylpyridin-3-yl)oxy]cyclo-hexane-1-carboxylic acid]		47
Cc1nc(-c2nnn(C)c2Cn2nnnc2CC2CCC2)ccc1O[C@H]1CCC[C@H](C(=O)O)C1 [Example 356, (1S,3S)-3-{[6-(5-{[5-(cyclobutyl-methyl)-1H-1,2,3,4-tetrazol-1-yl]methyl}-1-methyl-1H-1,2,3-triazol-4-yl)-2-methylpyridin-3-yl]oxy}cyclohexane-1-carboxylic acid]	146	
Cc1nc(-c2nnn(C)c2Cn2nnc(CC3CC3)n2)ccc1O[C@H]1CCC[C@H](C(=O)O)C1 [Example 105, (1 S,3 S)-3-((6-(5-((5-(cyclopropylmethyl)-2H-tetrazol-2-yl)methyl)-1-methyl-1H-1,2,3-triazol-4-yl)-2-methylpyridin-3-yl)oxy)cyclohexane-1-carboxylic acid]	29	
Cc1nc(-c2nnn(C)c2Cn2nnnc2CCC(C)C)ccc1O[C@H]1CCC[C@H](C(=O)O)C1 [Example 309, (1S,3S)-3-{[2-methyl-6-(1-methyl-5-{[5-(3-methylbutyl)-1H-1,2,3,4-tetrazol-1-yl]methyl}-1H-1,2,3-triazol-4-yl)pyridin-3-yl]oxy}cyclohexane-1-carboxylic acid]	191	
